Test results taken from ChEMBL document CHEMBL1201862, “PubChem BioAssay data set” (2004).
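Where inhibition never reached the appropriate level, the endpoint shown equals the highest concentration tested. Otherwise, values were interpolated linearly from a five-concentration, 48-hour dose response in 96-well plates. Here, GI50 denotes the concentration required for 50% inhibition of growth.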 Activity calls are given as the source filed them. No stated cut-off is given here; in the data, active = GI50 up to about 1.1 µM and inactive = higher.

Assays:
Assay in all cases: NCI-60 cell line screen, 48 h
[1] = system: 786-0
[2] = system: BT-549
[3] = system: CCRF-CEM
[4] = system: DU-145
[5] = system: EKVX
[6] = system: HL-60
[7] = system: IGROV-1
[8] = system: K562
[9] = system: KM12
[10] = system: MDA-MB-231
[11] = system: MDA-MB-435
[12] = system: MDA-N
[13] = system: Malme-3M
[14] = system: NCI-H226
[15] = system: NCI/ADR-RES
[16] = system: SF-539
[17] = system: SN12C
[18] = system: UACC-257
[19] = system: UACC-62
[20] = system: RPMI-8226

Row | SMILES | GI50 [1] | GI50 [2] | GI50 [3] | GI50 [4] | GI50 [5] | GI50 [6] | GI50 [7] | GI50 [8] | GI50 [9] | GI50 [10] | GI50 [11] | GI50 [12] | GI50 [13] | GI50 [14] | GI50 [15] | GI50 [16] | GI50 [17] | GI50 [18] | GI50 [19] | GI50 [20]
1 | CCCCCCCCC/C=C1/CC(CO)(COC(=O)CC(C(C)C)C(C)C)OC1=O (stereo unspecified) | 1.35 µM (inactive) | 14.3 µM (inactive) | 5.35 µM (inactive) | 12.4 µM (inactive) | 4.35 µM (inactive) | 271 nM (active) | 15.4 µM (inactive) | 0.36 µM (active) | 8.85 µM (inactive) | 2.59 µM (inactive) | 2.79 µM (inactive) | 0.21 µM (active) | 0.515 µM (active) | 6.07 µM (inactive) | 14.1 µM (inactive) | 10.2 µM (inactive) | 2.42 µM (inactive) | 12.9 µM (inactive) | 12.5 µM (inactive) | –
2 | O=C(O)c1ccccc1-c1ccccc1C(=O)Nc1ccc2c(c1)Cc1ccccc1-2 | 34.7 µM (inactive) | 29.9 µM (inactive) | – | 38.8 µM (inactive) | 22.1 µM (inactive) | – | 49.3 µM (inactive) | – | 32.4 µM (inactive) | 60.5 µM (inactive) | 41.9 µM (inactive) | 27.4 µM (inactive) | 42.5 µM (inactive) | 67.6 µM (inactive) | 45 µM (inactive) | 21.9 µM (inactive) | 29.3 µM (inactive) | 28.3 µM (inactive) | 16.7 µM (inactive) | 23.4 µM (inactive)
3 | Cc1ccsc1/C=N/Nc1nncc2ccccc12 | 90.2 µM (inactive) | > 100 µM (inactive) | 53.2 µM (inactive) | > 100 µM (inactive) | > 100 µM (inactive) | – | 15.9 µM (inactive) | > 100 µM (inactive) | > 100 µM (inactive) | > 100 µM (inactive) | > 100 µM (inactive) | > 100 µM (inactive) | – | > 100 µM (inactive) | > 100 µM (inactive) | – | > 100 µM (inactive) | > 100 µM (inactive) | > 100 µM (inactive) | 81.8 µM (inactive)
4 | Nc1cc2c(c3ccccc13)C(CCl)CN2C(=O)c1cc2cc(NC(=O)Nc3ccc4[nH]c(C(=O)N5CC(CCl)c6c5cc(N)c5ccccc65)cc4c3)ccc2[nH]1 (stereo unspecified) | 0.0153 µM (active) | 0.776 µM (active) | < 0.01 µM (active) | < 0.01 µM (active) | 1.74 µM (inactive) | – | 0.256 µM (active) | 0.367 µM (active) | 1.08 µM (active) | 0.27 µM (active) | 0.548 µM (active) | 0.292 µM (active) | 0.412 µM (active) | 0.275 µM (active) | 1.31 µM (inactive) | 0.0194 µM (active) | 0.0656 µM (active) | 1.16 µM (inactive) | 0.0634 µM (active) | 1.4 µM (inactive)
5 | COc1ccc2c(-c3csc(-c4c[nH]c5ccc(Br)cc45)n3)c[nH]c2c1 | 27.4 µM (inactive) | 67.3 µM (inactive) | 27.7 µM (inactive) | > 100 µM (inactive) | 32.1 µM (inactive) | – | 81.5 µM (inactive) | 15.2 µM (inactive) | 43.6 µM (inactive) | 13.9 µM (inactive) | 7.69 µM (inactive) | 8.26 µM (inactive) | 17.5 µM (inactive) | 45.4 µM (inactive) | 90.6 µM (inactive) | – | 58.1 µM (inactive) | 88.9 µM (inactive) | > 100 µM (inactive) | 27.1 µM (inactive)
6 | Oc1nc2c(c(-c3cccc(Cl)c3)n1)COC/C2=C\c1cccc(Cl)c1 | > 100 µM (inactive) | > 100 µM (inactive) | 64.4 µM (inactive) | > 100 µM (inactive) | > 100 µM (inactive) | – | > 100 µM (inactive) | > 100 µM (inactive) | > 100 µM (inactive) | > 100 µM (inactive) | > 100 µM (inactive) | > 100 µM (inactive) | – | > 100 µM (inactive) | > 100 µM (inactive) | > 100 µM (inactive) | > 100 µM (inactive) | > 100 µM (inactive) | > 100 µM (inactive) | 69.7 µM (inactive)
7 | CC(=O)OCC1OC(On2ccccc2=S)C(OC(C)=O)C(OC(C)=O)C1OC(C)=O (stereo unspecified) | > 100 µM (inactive) | > 100 µM (inactive) | 0.785 µM (active) | > 100 µM (inactive) | > 100 µM (inactive) | 1550 nM (inactive) | > 100 µM (inactive) | > 100 µM (inactive) | > 100 µM (inactive) | > 100 µM (inactive) | > 100 µM (inactive) | > 100 µM (inactive) | > 100 µM (inactive) | – | > 100 µM (inactive) | > 100 µM (inactive) | > 100 µM (inactive) | > 100 µM (inactive) | > 100 µM (inactive) | –
